Assay [1] concerns B51 breast tumor cells. In words: B51 breast tumor recurrence after paclitaxel. The class given is in vivo, NOD-SCID mice. The following applies: 59R1 10 mg/kg twice per week plus paclitaxel 15 mg/kg twice per week for 38 days, then antibody only. As for the experimental part: B51 breast tumor cells (50,000 cells per mouse) were injected sub-cutaneously into the mammary fat pad of NOD-SCID mice. Tumors were allowed to grow for 50 days until they had reached an average volume of ˜100 mm^3. Animals were randomized (n=10/group) and treatments were initiated. One group received a control antibody (1B711) at 10 mg/kg twice per week and paclitaxel (Taxol) at 15 mg/kg twice per week and the other group received 59R1 at 10 mg/kg twice per week and paclitaxel at 15 mg/kg twice per week. Tumor volumes were measured on the indicated days. Treatments were carried out for 38 days until the tumor volumes had regressed to ˜50 mm^3, after which the paclitaxel treatments were halted and the antibody treatments continued for the duration of the experiment.

Assay [2] concerns stroma of B44 tumors. In words: Microarray gene expression in stroma of treated xenograft tumors, B44. The class given is in vivo, mice. The settings on record: 59R1 vs control. As for the experimental part: Gene expression levels in various xenograft tumor models treated with the 59R1 IgG2 antibody were analyzed by microarray analysis. […] […] Scanned array background adjustment and signal intensity normalization were performed with GCRMA algorithm in the open-source bioconductor software (www.bioconductor.org). The expression level of each gene was normalized by z-score transformation across the samples in the control (CTRL) and treatment (59R1) groups.

Assay [3] addresses human Notch3 (Homo sapiens, UniProt Q9UM47). In words: FACS binding to transiently transfected HEK-293 cells, human Notch3. Set-up: expressed in transfected cells. As for the experimental part: The ability of the 59R1 IgG2 antibody to cross-react with other Notch receptors was determined by FACS assay using HEK-293 cells transiently transfected with the human Notch1, Notch2, Notch3 or Notch4 expression plasmid and green fluorescent protein (GFP) as a transfection control. GFP positive cells indicated expression of the transgene. The 59R1 IgG2 was added to the cells at 2 μg/ml and detected by PE-conjugated goat anti-human Fc gamma specific (Jackson Immunochemicals). All Notch constructs were full length.
On the technique in general: A flow cytometer gives signals particle by particle.

Assay [4] deals with T1, human Notch2 EGF deletion and point mutants (Homo sapiens, UniProt Q04721, DEL375-412).
T1 construct: several point mutants were created within full-length Notch2; expressed in transfected cells; host or cells: HEK-293, transient, co-transfected with GFP
T1 sequence (Q04721 with tags, fused parts or gaps DEL375-412): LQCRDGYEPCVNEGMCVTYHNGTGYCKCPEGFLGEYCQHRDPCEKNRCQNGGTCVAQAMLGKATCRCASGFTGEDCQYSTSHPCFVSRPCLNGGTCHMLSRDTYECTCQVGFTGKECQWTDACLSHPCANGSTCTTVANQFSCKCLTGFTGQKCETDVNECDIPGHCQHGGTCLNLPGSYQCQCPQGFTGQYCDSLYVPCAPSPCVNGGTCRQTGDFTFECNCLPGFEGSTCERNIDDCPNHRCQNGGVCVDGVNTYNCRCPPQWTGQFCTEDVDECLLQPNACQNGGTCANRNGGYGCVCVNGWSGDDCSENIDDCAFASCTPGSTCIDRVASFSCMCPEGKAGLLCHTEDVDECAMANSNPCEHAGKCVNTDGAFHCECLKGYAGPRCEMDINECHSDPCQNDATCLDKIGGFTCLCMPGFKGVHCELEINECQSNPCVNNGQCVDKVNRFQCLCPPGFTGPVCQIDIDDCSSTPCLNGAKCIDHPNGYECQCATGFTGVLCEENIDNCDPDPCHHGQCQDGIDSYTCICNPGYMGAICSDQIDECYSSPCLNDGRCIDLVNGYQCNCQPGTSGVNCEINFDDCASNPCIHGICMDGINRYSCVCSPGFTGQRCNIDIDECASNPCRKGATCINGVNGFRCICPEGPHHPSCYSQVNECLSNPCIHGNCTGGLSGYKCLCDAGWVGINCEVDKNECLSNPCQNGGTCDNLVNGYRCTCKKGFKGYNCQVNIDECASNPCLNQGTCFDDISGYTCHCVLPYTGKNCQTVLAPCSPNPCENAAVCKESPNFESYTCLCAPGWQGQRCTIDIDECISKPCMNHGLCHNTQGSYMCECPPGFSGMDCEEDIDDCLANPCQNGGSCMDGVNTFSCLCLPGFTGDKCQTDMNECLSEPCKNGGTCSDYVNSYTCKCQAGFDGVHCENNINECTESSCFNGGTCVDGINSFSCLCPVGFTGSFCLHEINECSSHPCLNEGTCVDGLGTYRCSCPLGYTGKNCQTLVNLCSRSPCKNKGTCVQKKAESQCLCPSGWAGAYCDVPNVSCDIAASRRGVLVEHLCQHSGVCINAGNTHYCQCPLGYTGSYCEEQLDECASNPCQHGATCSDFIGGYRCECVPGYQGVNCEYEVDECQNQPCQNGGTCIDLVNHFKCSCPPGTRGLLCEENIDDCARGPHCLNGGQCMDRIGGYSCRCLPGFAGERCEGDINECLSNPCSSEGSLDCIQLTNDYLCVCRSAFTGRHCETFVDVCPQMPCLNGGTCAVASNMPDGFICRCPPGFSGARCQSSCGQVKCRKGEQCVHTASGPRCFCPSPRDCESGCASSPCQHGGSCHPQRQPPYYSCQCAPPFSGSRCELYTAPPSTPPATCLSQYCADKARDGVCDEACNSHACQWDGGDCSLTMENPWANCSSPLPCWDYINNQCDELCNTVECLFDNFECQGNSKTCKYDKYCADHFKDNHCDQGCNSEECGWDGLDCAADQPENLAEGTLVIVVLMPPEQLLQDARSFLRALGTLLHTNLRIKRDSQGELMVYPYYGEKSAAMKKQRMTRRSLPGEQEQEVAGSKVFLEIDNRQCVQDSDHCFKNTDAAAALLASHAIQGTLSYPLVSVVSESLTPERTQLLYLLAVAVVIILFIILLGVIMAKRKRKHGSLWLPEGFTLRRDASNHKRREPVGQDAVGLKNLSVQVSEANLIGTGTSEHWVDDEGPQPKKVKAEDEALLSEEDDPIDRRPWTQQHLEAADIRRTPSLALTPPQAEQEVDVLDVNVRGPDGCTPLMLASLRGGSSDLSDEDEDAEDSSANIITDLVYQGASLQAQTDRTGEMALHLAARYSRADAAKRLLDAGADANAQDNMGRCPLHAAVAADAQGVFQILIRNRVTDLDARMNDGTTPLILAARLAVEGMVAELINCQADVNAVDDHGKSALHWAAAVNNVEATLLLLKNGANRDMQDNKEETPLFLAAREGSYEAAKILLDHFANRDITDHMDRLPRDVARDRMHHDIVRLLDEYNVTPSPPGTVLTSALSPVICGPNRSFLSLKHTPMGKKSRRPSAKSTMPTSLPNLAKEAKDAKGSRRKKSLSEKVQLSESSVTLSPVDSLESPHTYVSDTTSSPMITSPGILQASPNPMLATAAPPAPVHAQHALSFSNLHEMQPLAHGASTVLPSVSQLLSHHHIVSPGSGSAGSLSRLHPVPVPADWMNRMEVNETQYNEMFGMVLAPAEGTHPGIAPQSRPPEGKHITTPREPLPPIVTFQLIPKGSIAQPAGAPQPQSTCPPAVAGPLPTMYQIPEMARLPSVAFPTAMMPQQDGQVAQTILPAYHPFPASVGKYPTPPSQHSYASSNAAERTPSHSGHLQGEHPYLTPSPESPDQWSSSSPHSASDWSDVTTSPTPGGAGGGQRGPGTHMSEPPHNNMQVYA
In words: FACS epitope mapping with full-length hNotch2 deletion and point mutants. The class given is binding. The following applies: HEK-293 transiently transfected. Here is the method: (§1) Point mutations were made within EGF10 of Notch2 fusion proteins and binding of 59R1 to each EGF10 mutant was determined by FACS analysis. HEK-293 cells were transiently transfected with the indicated Notch expression plasmid and GFP as a transfection control. GFP positive cells indicated expression of the transgene. The 59R1 Fab antibody was added to the cells at 10 μg/ml and detected by PE-conjugated goat anti-human (Jackson Immunochemicals).
(§2) FACS analysis of HEK-293 cells transiently transfected with the indicated Notch expression plasmid and GFP as a transfection control. GFP positive cells indicate expression of the transgene. Anti-Notch2 (59M70) was added at 20 μg/ml and detected by PE-conjugated goat anti-mouse (Caltag, #3004-4). 59R1 (IgG2) was added to the cells at 2 μg/ml and detected by PE-conjugated goat anti-human Fc gamma specific (Jackson Immunochemicals). Ligand binding was determined by incubation of the cells with human DLL4 extracellular domain (ECD) fused to rabbit IgG constant region at 5 μg/ml and detected by PE-conjugated donkey anti-rabbit.
(§3) A comparison analysis of the EGF 10 regions of human Notch1, Notch2, and Notch4 and the EGF 9 region of human Notch3 (the equivalent of EGF 10 in the other Notch receptors) was performed to determine likely binding sites for 59R1 (FIG. 14A). […] Binding to the mutants was determined by FACS analysis (FIGS. 14B and 14C). […]

In assay [5] the target is T2, human Notch2 EGF deletion and point mutants (Homo sapiens, UniProt Q04721, A388S/H385N/L389N).
T2 construct: several point mutants were created within full-length Notch2; expressed in transfected cells; host or cells: HEK-293, transient, co-transfected with GFP
T2 sequence (Q04721 26-2471 H385N/A388S/L389N): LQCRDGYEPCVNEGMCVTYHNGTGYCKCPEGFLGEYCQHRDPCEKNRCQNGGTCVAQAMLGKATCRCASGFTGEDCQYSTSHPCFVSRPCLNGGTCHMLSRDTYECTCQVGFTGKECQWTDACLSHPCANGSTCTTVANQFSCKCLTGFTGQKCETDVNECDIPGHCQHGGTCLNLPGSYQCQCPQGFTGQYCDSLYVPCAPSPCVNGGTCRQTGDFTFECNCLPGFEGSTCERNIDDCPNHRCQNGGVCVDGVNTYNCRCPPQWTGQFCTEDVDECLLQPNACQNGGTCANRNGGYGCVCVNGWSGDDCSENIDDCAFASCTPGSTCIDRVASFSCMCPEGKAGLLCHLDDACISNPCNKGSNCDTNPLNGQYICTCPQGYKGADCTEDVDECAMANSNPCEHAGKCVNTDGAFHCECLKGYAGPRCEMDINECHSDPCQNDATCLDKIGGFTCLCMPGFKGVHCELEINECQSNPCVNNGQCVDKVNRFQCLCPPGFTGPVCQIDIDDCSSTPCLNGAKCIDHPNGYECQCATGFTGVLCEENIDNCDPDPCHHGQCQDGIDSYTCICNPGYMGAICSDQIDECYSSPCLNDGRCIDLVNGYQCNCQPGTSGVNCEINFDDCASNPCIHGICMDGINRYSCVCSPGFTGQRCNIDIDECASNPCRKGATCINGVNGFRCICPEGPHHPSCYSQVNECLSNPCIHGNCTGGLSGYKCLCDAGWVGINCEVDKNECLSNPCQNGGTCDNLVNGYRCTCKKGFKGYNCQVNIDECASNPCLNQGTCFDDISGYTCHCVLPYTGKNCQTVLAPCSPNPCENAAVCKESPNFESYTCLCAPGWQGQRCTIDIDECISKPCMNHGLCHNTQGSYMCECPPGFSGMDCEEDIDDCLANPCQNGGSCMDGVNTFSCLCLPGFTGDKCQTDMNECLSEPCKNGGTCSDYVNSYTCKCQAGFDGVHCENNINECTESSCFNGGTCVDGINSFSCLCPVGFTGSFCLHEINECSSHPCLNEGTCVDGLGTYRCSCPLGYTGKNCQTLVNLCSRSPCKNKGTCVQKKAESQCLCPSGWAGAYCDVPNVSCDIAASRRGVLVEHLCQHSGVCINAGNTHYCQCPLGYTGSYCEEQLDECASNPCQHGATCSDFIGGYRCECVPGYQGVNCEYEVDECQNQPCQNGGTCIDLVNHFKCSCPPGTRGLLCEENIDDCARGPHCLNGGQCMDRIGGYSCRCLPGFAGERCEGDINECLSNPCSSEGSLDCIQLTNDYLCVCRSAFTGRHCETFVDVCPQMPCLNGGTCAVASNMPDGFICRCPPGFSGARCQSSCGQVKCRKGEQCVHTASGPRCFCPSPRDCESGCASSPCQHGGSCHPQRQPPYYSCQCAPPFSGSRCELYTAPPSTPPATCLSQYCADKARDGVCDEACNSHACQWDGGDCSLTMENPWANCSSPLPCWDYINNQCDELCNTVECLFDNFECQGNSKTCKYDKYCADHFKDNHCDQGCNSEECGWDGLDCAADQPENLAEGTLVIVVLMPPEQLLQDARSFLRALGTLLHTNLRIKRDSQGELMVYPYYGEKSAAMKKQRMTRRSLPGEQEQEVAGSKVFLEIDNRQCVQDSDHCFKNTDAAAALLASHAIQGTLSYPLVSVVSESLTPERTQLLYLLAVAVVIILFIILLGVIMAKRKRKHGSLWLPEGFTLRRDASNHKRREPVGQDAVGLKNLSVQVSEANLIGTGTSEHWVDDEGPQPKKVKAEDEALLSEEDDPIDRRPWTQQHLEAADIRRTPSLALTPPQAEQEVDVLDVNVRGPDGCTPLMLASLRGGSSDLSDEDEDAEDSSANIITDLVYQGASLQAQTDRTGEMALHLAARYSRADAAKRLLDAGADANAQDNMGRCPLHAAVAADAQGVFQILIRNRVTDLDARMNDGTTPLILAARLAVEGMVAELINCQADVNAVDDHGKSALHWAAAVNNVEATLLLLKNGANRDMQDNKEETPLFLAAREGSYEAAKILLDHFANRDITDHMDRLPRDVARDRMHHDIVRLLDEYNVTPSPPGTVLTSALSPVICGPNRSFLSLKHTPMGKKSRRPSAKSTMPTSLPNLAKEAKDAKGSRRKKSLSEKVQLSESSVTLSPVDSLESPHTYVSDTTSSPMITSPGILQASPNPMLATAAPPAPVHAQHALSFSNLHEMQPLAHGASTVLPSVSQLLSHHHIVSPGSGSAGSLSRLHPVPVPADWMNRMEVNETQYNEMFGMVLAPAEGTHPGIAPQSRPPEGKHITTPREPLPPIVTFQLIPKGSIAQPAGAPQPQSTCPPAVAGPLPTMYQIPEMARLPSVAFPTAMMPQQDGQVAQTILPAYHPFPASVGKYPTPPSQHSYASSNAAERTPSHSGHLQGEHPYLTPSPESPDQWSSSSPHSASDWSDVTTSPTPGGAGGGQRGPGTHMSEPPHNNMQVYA
The description is as above. The class given is binding. The settings on record: FACS on point mutants. As for the experimental part:
as §1, §2, §3

Assay [6] deals with colon tumor xenograft line OMP-C8. In words: OMP-C8 colon tumor xenograft growth. The settings on record: established tumors, 15 mg/kg once a week. The class given is in vivo, NOD/SCID mice. As for the experimental part: The 59R1 IgG2 antibody was also tested in vivo in the breast tumor xenograft lines OMP-B34, OMP-B39, OMP-B44, PE13, and UM-T1, the pancreas tumor xenograft line OMP-PN8, and the colon tumor xenograft line OMP-C8. These tumor xenograft lines were established by adhering to procedures described in Al-Hajj et al., 2003, Proc. Natl. Acad. Sci. USA, 100:3983-3988. Female NOD/SCID immuno-compromised mice 7-10 weeks old were used for the establishment of the breast tumor xenografts and male NOD/SCID mice were used for the OMP-Pn8 and OMP-C8 tumor-models (Harlan, Indianapolis, Ind.). The 59R1 IgG2 antibody was also tested in vivo in a Colo-205 colon tumor xenograft model. Female immunodeficient bg/nu XID mice on a Swiss CD-1 background were used for the Colo-205 xenograft tumor model. In case of the breast cancer models, slow-releasing estrogen pellets (0.36 mg) had to be implanted. Mice were subcutaneously injected on the right flank with 50,000 (OMP-B34, OMP-B39, OMP-B44, PE13, and UM-T1) or 1×10^7 (Colo-205) viable cells, respectively, in a mixture of PBS (without magnesium or calcium) and Matrigel at a 1:1 ratio. […] Antibodies were administered weekly and tumors measured twice weekly. […] Tumor volume was calculated as described Al-Hajj et al. (2003). Data are expressed as the mean and the mean±S.E.M. Group means were compared using Student's two-tailed, unpaired t-test. […]

In the case of “59R1: human IgG2 antibody binding Notch2 and Notch3; heavy and light chain SEQ ID NO:16 and 18; ATCC PTA-9547”, the “B51 tumor recurrence after paclitaxel treatment” value in assay [1] is “recur more rapidly in the control group compared with the group treated with 59R1”. Besides, in assay [2], the “Fold 1416286_at (Rgs4)” value is on record as −1.57, the “Fold 1417466_at (Rgs5)” value is −2.22, the “Fold 1417714_x_at (Hba-al/Hba-a2)” value is listed as −2.56 and the “Fold 1418829_a_at (Eno2)” value is 1.71. Also, in assay [2], the “Fold 1419302_at (Heyl)” value was −1.12, the “Fold 1420872_at (Gucy1b3)” value is recorded as −1.65, the “Fold 1420941_at (Rgs5)” value is on record as −2.09 and the “Fold 1420942_s_at (Rgs5)” value is listed as −2.43. Besides, in assay [2], the “Fold 1421964_at (Notch3)” value was −2.03, the “Fold 1422789_at (Aldh1a2)” value was −4.92, the “Fold 1428361_x_at (Hba-al/Hba-a2)” value is recorded as −2.42 and the “Fold 1434141_at (Gucy1a3)” value is given as −1.74. Further, in assay [2], the “Fold 1449280_at (Esm1)” value came out at 1.55, the “Fold 1449632_s_at (Fkbp10)” value was −1.57, the “Fold 1451501_a_at (Ghr)” value is listed as −2.24 and the “Fold 1452590_a_at (Plac9)” value is reported as −1.64. Also, the “Fold 1459713_s_at (Tmem16a)” value in assay [2] is reported as −1.70. In assay [3], the “binding to full-length human Notch3 (FACS)” value is “specifically binds”. Besides, the “FACS binding to hNotch2 in the absence of EGF 10 (missing amino acids 375-412)” value in assay [4] was “does not”. In addition, the “amino acids necessary for binding to hNotch 2” value in assay [5] is “histidine 385, alanine 388, and leucine 389”. Besides, the “C8 tumor growth relative to LZ1 control antibody” value in assay [6] is listed as “inhibit tumor growth”.

The record behind these values is US8226943B2, “Antibodies to notch receptors” (OncoMed Pharmaceuticals, Inc., priority 2008, dated 2012).
